{
  "source": "patent US5571799A",
  "about": "“(2'-5') oligoadenylate analogues useful as inhibitors of host-v5.-graft response” (Basco, Ltd., priority 1994, dated 1996)",
  "key": {"[1]": {"test_system": "snake venom phosphodiesterase", "assay": "Stability to the action of snake venom phosphodiesterase", "format": "in vitro ADME", "protocol": "Determination of (2'-5')oligoadenylates and analogues stability to the action of snake venom phosphodiesterase\nUpon entering an organism 2'-5'A3 and the analogues are quickly hydrolyzed to monomeric compound(s). Prior to administration of 2'-5'A3 analogues in vivo to animal, it was considered necessary to determine their stability towards snake venom phosphodiesterase in comparison to the parent 2'-5'A3.\nThe solution of 3 μg of the snake venom phosphodiesterase (Boehringer Mannheim cat. No. 108260) in 30 μl of 0.1 M Tris HCl buffer, containing 0.002 M MgCl2 (pH 8.78) is added to the solution of 4-5·10^-7 M trimer in 100 μl of the same buffer. The solution was left standing at 20° C. At regular intervals, 10 μl samples were taken, heated at 90° C. for 1 minute and preparative thin layer chromatography was performed on the Silufole™ plates, using a 7:1:2 mixture of isopropanol:aqueous ammonia:water.\nThe spot, corresponding to the initial trimer, was cut out, the substance was extracted with 2 ml of 0.5% solution of the dodecylsulfate sodium salt solution for 2 hours, and the optical density of the solution was determined at 260 nm."}, "[2]": {"test_system": "interleukin-II", "assay": "Immune system of monkeys: interleukin-II", "format": "in vivo, Macaque Rh. monkeys", "protocol": "Immunosuppressive activity of the prototype 2'-5'A3 and two analogues (2'-5')A2 Ar-epoxy and (2'-5')A2 A^l-epoxy were investigated in monkeys. The experiments were performed on 4 year-old Macaque Rh. monkeys. The levels of the principal subpopulations of T-lymphocytes, IgA, IgG, IgM and the amount of α- and γ-interferon and interleukin II after administration (2'-5')olygoadenylate and its analogies at the concentration of 50 and 25 μg/kg of the body weight was investigated.\nSerum levels of IgG, IgA, IgM were determined by radial immunodiffusion using antisera against human immunoglobulin A, M, G. The amount of interferon and interleukine-II were determined by the method of Lopez-Botet M. et al., 1982."}, "[3]": {"test_system": "transplanted kidney", "assay": "Kidney allotransplantation using chinchilla rabbits", "format": "in vivo", "protocol": "Kidney allotransplantations were performed using chinchilla rabbits of the same sex, weighing 5.0-6.5 kg. In the series of 10 rabbits, allogenic kidneys were transplanted on the neck vessels, rabbit ureter was taken outside for performing ureterocutaneostoma. Anastomosis was performed on the donor kidney vessels according to the \"end-into-end\" pattern, with the external carotid artery and the jugular vein joined by means of their preliminary cannulation and fixation by the cannulae with the recipient vessels.\nThe recipient rabbits had combined anesthesia: intravenous introduction of hexenal at a rate of 10 mg per 1.0 kg. body weight was supplemented by local anesthesia with 0.25-0.5% novocaine solution up to 15.0 ml. An intact rabbit served as a kidney donor, whose kidneys were exposed by means of transperitoneal access and perfused with 500 ml of Eurocollins solution, in situ. Simultaneously with the kidney perfusion, kidney vessels and ureters were utilized, the latter being cut at the level of iliac vessels. Having performed perfusion without extracting a kidney from the donor, kidney vessels were cannulated from the aorta and vena cava, the canulae were fixed with separate ligatures and the vessels were released. After this, the kidney was extracted.\nThe organs were preserved at the temperature of melting ice. Then we proceeded directly to kidney transplantation. The preservation lasted for about 2.5-3.0 hours and thermal ischemia (secondary) duration was 30-40 minutes.\nImmunosuppression was performed by IV injection of (2'-5')A2 Ar-epoxy at a dose of 5 μg per 1.0 kg body weight at 0.1 ml of the physiologic solution daily until the conclusion of the experiment. During the first two weeks of the post-operative period, blood was taken for immunological analysis; BTR with PHA and Concanavalin A were tested.\nThe results of the experiments were evaluated clinically, by the presence or absence of urination from the ureterocutaneostoma and by the behavior of the experimental animals."}},
  "note": "“Also recorded” adds a separate entry of the source.",
  "data": [
    {"substance": "Adenylyl (2'-5')adenylyl (2'-5')-9-(2,3-anhydro-β-D-ribofuranosyl) adenine disodium salt [(2'-5')A2 Ar-epoxy]", "values": [
      {"measurement": "T 1/2 (time for optical density of initial trimer to decrease by 50%)", "setting": "[1]; 20° C., 0.1 M Tris HCl, 0.002 M MgCl2, pH 8.78", "value": 16.0, "unit": "h"},
      {"measurement": "stability / resistance to phosphodiesterase", "setting": "[1]; in words, disodium salt", "value": "significantly more resistant towards hydrolysis by phosphodiesterase; also recorded: more resistant to phosphodiesterase than (2'-5')A2 A^l-epoxy"},
      {"measurement": "resistance to snake venom phosphodiesterase relative to prototype 2'-5'A3", "setting": "[1]; vs 2'-5'A3", "value": 35, "unit": "fold"},
      {"measurement": "effect on interleukin-II production, in words", "setting": "[2]; monkeys, single IV, two weeks", "value": "suppresses production of interleukin-II"},
      {"measurement": "Interleukin-II", "setting": "[2]; single IV 25 μg/kg, day 0 (baseline)", "value": "4 Units per 10,000 lymphocytes"},
      {"measurement": "Interleukin-II", "setting": "[2]; single IV 25 μg/kg, day 1", "value": "2 Units per 10,000 lymphocytes"},
      {"measurement": "Interleukin-II", "setting": "[2]; single IV 25 μg/kg, day 2", "value": "2 Units per 10,000 lymphocytes"},
      {"measurement": "Interleukin-II", "setting": "[2]; single IV 25 μg/kg, day 12", "value": "2 Units per 10,000 lymphocytes"},
      {"measurement": "Interleukin-II", "setting": "[2]; single IV 25 μg/kg, day 21", "value": "4 Units per 10,000 lymphocytes"},
      {"measurement": "Interleukin-II", "setting": "[2]; single IV 50 μg/kg, day 0 (baseline)", "value": "8 Units per 10,000 lymphocytes"},
      {"measurement": "Interleukin-II", "setting": "[2]; single IV 50 μg/kg, day 1", "value": "4 Units per 10,000 lymphocytes"},
      {"measurement": "Interleukin-II", "setting": "[2]; single IV 50 μg/kg, day 2", "value": "4 Units per 10,000 lymphocytes"},
      {"measurement": "Interleukin-II", "setting": "[2]; single IV 50 μg/kg, day 12", "value": "4 Units per 10,000 lymphocytes"},
      {"measurement": "Interleukin-II", "setting": "[2]; single IV 50 μg/kg, day 21", "value": "4 Units per 10,000 lymphocytes"},
      {"measurement": "animals with positive results (graft function)", "setting": "[3]; 10 rabbits, 5 μg/kg daily IV", "value": "four"},
      {"measurement": "rabbits with no graft function in the early postoperative period", "setting": "[3]; 10 rabbits, probably vesicular thrombosis", "value": "four"},
      {"measurement": "time to death after nephrectomy", "setting": "[3]; another rabbit", "value": "≤ 48", "unit": "h"},
      {"measurement": "rabbits with generalized viral infection of the respiratory tract", "setting": "[3]; fatal", "value": 2, "unit": "rabbits"},
      {"measurement": "duration of function of the grafted kidney", "setting": "[3]; first group, four animals, 5 μg/kg daily IV", "value": "at least 2 months"},
      {"measurement": "death after transplantation (wound suppuration, sepsis)", "setting": "[3]; fourth group, single rabbit", "value": "death within the first week after transplantation"},
      {"measurement": "graft function after ablation of contralateral kidney, in words", "setting": "[3]; one rabbit, 1 month after operation", "value": "the grafted kidney continued functioning"},
      {"measurement": "period of normal functioning of the transplanted kidney", "setting": "[3]; rabbits, IV 5 μg/kg (summary)", "value": 3, "unit": "months"}
    ]}
  ]
}
